Consider one compound from US20230339968A1, “KRAS Gl2C INHIBITORS” (Eli Lilly and Company, priority 2019, published 2023).

One experiment relates to pERK. The experiment is described as follows: In vivo pharmacodynamic effect, pERK Meso Scale Discovery ELISA of tumor lysates, pancreatic cancer MiaPaca-2 xenograft model. As to conditions: Mus musculus, MIA PaCa-2, MiaPaca-2 model; for inhibition at 5 mg/kg: single dose 5 mg/kg; for inhibition at 10 mg/kg: single dose 10 mg/kg; for inhibition at 30 mg/kg: single dose 30 mg/kg. Here is the method: The purpose of these assays is to evaluate in vivo target inhibition of an orally administered test compound. Human lung cancer H358 cells, or pancreatic cancer MiaPaca-2 cells, are implanted into nude mice xenograft tumor models. H358 or MiaPaca-2 cells (10×106 in a 1:1 Matrigel® mix, 0.2 mL total volume) are implanted by subcutaneous injection in hind leg of nude female mice (Harlan Laboratories). A total of 3-4 mice in each group are used for target engagement and PD study. Treatment is initiated with oral administration (gavage) of a test compound or vehicle (20% Captisol®, 25 mM phosphate, pH 2.0 in 0.2 mL) when the tumor size reaches approximately 300 mg.
For in vivo target inhibition and PD analysis, tumors are ground by mortar and pestle on dry ice and tumor fragments are added to 800 μL of lysis buffer containing 1% Triton™ X-100, 25 mM Tris pH7.5, 150 mM sodium chloride, 1 mM EDTA, and 1 mM EGTA with Halt protease and phosphatase inhibitor cocktail (Thermo Scientific, cat. no. 1861281) in lysing matrix D tubes (MP Biomedical®, cat. no. 6913-500) with one additional large bead (MP Biomedical® ¼″ ceramic sphere bead cat. no. 6540-412) per tube. Tumor fragments are homogenized in a Thermo Bio101® fast prep (FP120) at setting 4 for […] while cold for a total of 2 times. Lysates are spun at 14,000 rpm for 10 minutes at 4° C. to clarify. Protein estimation is done on the lysate supernatant using a BioRad Dc® protein assay and lysates are diluted in complete lysis/binding buffer from the Ras GTPase Chemi ELISA Kit® (Active Motif, cat. no. 52097). The active KRas ELISA is performed as follows: glutathione-coated ELISA wells are incubated with diluted RAF1-GST in complete lysis/binding buffer for 1 hour at 4° C. with gentle agitation. Wells are washed 3 times with wash buffer and 100 μg of lysates are added to each well and incubated at ambient temperature for 1 hour with mild agitation. The wells are washed an additional 3 times, then primary antibody, diluted in antibody binding buffer, is added to each well. The plates are incubated for 1 hour. The wells are washed 3 more times before adding HRP-conjugated secondary antibody, diluted in antibody binding buffer, to each well. The plates are incubated at ambient temperature for 1 hour. ELISA wells are washed 4 times, chemiluminescent reagent is added and then luminescence is read. For pERK Meso Scale Discovery ELISA, 25 μg of protein containing 0.1% SDS is used; Meso Scale Discovery Whole Cell Lysate Kit for pERK is provided by Meso Scale Discovery.
The purpose of this assay is to evaluate the does and time dependent in vivo target inhibition and pharmacodynamic effects in a pancreatic cancer model. The compound of Examples 35 is dosed at 5, 10 or 30 mg/kg in a time course experiment. After a single dose, the tumor samples are harvested at 2, 4, 8, 12 and 24 hours post doing. The tumor lysates are prepared and the inhibition of pERK and active KRas is measured as described above.

The subject of a further experiment is H1373 (lung) xenograft. The experiment is described as follows: Anti-tumor growth activity, H1373 xenograft model. The experiment is classed as in vivo, mouse. The method, then: For xenograft models of H1373, HCC44, MiaPaca-2, SW1463, KYSE-410 and UM-UC-3, typically 5-10×10^6 cells in a 1:1 matrigel mix (0.2 mL total volume) are implanted by subcutaneous injection in hind leg of nude mice. […] Treatment is initiated with oral administration (gavage) of testing compound or vehicle (20% captisol, 25 mM phosphate, pH2.0) in 0.2 mL volume when tumor size reaches approximately 200-300 mg. Tumor growth and body weight are monitored over time to evaluate efficacy and signs of toxicity. For EL3187 PDX model, frozen vials containing tumor fragments are thawed at 37° C. in a water bath. The tumor fragments are transferred to 50 mL Falcon tube and the ice cold DMEM medium is slowly added into the tube to a total volume of 35 mL. Then the tumor fragments are centrifuged at 130×g for 2 minutes at 4° C. and supernatant is aspirated. This washing step is repeated twice and the tumor fragments are resuspended in 10 mL DMEM for implantation into athymic nude-Foxn1nu mice (Envigo RMS, Inc., Mount Comfort, Indiana). Once tumor volumes reach 800 to 1000 mm^3, animals are sacrificed and tumors are harvested using aseptic technique. Fresh tumors are cut into 10 to 15 mm^3 fragments and placed into cold Gibco hibernate medium. The tumor fragments are subcutaneously implanted into animals with a 10 g trochar needle. When tumor size reaches 200 to 300 mm^3, the animals are randomized for compound treatment.
Among models listed in Table 31, EL3187 is a patient-derived xenograft (PDX) model, and all other are tumor xenograft models.

In the next experiment the test system is EL3187 PDX (lung). The experiment is described as follows: In vivo combination efficacy with other targeted therapies, EL3187 PDX model. Further details: species or system mouse. As to conditions: 3 mg/kg QD × 28. The source says:
A total of six in vivo xenograft or PDX models—four lung models (H358, H1373, LU99, and EL3187 PDX), one colorectal model (SW1463) and one pancreatic model (MiaPaca-2)—are utilized.

As for `C=CC(=O)N1CCN2C(=O)c3cc(F)c(-c4ccc(F)c5sc(N)c(C#N)c45)c(Cl)c3OCC[C@H]2C1` [Example 35, 4-[(13aS)-10-Chloro-8-fluoro-6-oxo-2-prop-2-enoyl-1,3,4,12,13,13a-hexahydropyrazino[2,1-d][1,5]benzoxazocin-9-yl]-2-amino-7-fluoro-benzothiophene-3-carbonitrile], the inhibition at 5 mg/kg in the experiment with pERK (2 hours) was 51%; with pERK (4 hours) it was 50.9%; in the experiment with pERK (8 hours), 59%; in the experiment with pERK (12 hours), 47.4%; in the experiment with pERK (24 hours), -30.2%. The inhibition at 10 mg/kg with pERK (2 hours) is 68.5%; in the experiment on pERK (4 hours), 58.5%; in the experiment with pERK (8 hours) it was 57.6%; with pERK (12 hours) it was 49%; in the experiment with pERK (24 hours), -14.9%. For the same compound, the inhibition at 30 mg/kg is 59.5% with pERK (2 hours); 58.7% in the experiment on pERK (4 hours); 54.3% in the experiment on pERK (8 hours); 58.4% with pERK (12 hours); 15.6% in the experiment with pERK (24 hours). Besides, the “tumor growth inhibition (%) or regression (−%)” value was −26.3% in the experiment with H1373 (lung) xenograft (5 mg/kg BID × 28, oral); −49% with H1373 (lung) xenograft (10 mg/kg BID × 28, oral); −21.3% with H1373 (lung) xenograft (10 mg/kg QD × 28, oral); −49.7% with H1373 (lung) xenograft (30 mg/kg QD × 28, oral). Moreover, in the experiment on EL3187 PDX (lung), the “Tumor Growth Inhibition (%) and Regression (−%)” value was 85.2%.
